# Measurements taken from ChEMBL document CHEMBL1201862, “PubChem BioAssay data set” (2004).
#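 Assay format: 96-well plates, 48-hour exposure. GI50 marks 50% less growth.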 Active and inactive are the calls of the source. Rule as the data show it: active = GI50 up to about 1.1 µM and inactive = higher.
# What was measured:
# Assay in all cases: DTP human tumour cell line panel, 48 h
# [1] = system: A549
# [2] = system: BT-549
# [3] = system: CAKI-1
# [4] = system: EKVX
# [5] = system: HCT-15
# [6] = system: HL-60
# [7] = system: HT-29
# [8] = system: IGROV-1
# [9] = system: MDA-MB-231
# [10] = system: NCI-H226
# [11] = system: NCI-H460
# [12] = system: OVCAR-4
# [13] = system: OVCAR-8
# [14] = system: SK-MEL-28
# [15] = system: SK-MEL-5
# [16] = system: SN12C
# [17] = system: SR
# [18] = system: TK-10
# [19] = system: UACC-62
# [20] = system: RXF 393
SMILES,GI50 [1],GI50 [2],GI50 [3],GI50 [4],GI50 [5] [µM],GI50 [6],GI50 [7],GI50 [8],GI50 [9],GI50 [10],GI50 [11],GI50 [12],GI50 [13],GI50 [14],GI50 [15],GI50 [16],GI50 [17],GI50 [18],GI50 [19],GI50 [20]
O=C(CCN1CCOCC1)Nc1ccc(F)cc1F,> 100 µM (inactive),> 100 µM (inactive),> 100 µM (inactive),> 100 µM (inactive),> 100,> 100 µM (inactive),> 100 µM (inactive),> 100 µM (inactive),> 100 µM (inactive),> 100 µM (inactive),> 100 µM (inactive),> 100 µM (inactive),> 100 µM (inactive),> 100 µM (inactive),> 100 µM (inactive),> 100 µM (inactive),> 100 µM (inactive),> 100 µM (inactive),> 100 µM (inactive),–
COc1ccc2oc(=O)c(CC=C(C)C)c(O)c2c1C,> 100 µM (inactive),> 100 µM (inactive),> 100 µM (inactive),> 100 µM (inactive),> 100,> 100 µM (inactive),> 100 µM (inactive),> 100 µM (inactive),> 100 µM (inactive),> 100 µM (inactive),> 100 µM (inactive),–,> 100 µM (inactive),> 100 µM (inactive),> 100 µM (inactive),> 100 µM (inactive),> 100 µM (inactive),> 100 µM (inactive),> 100 µM (inactive),–
Cc1n(Cc2ccccc2)c2c([n+]1C)C(=O)c1ccccc1C2=O,0.0478 µM (active),0.0822 µM (active),3.15 µM (inactive),0.181 µM (active),2.56,0.0318 µM (active),0.0417 µM (active),0.0301 µM (active),0.0583 µM (active),0.237 µM (active),0.108 µM (active),0.0401 µM (active),0.0431 µM (active),0.0948 µM (active),0.0211 µM (active),0.0318 µM (active),–,0.265 µM (active),0.17 µM (active),0.294 µM (active)
COC(=O)CN1SC2(SC13C(C)(C)C(=O)C3(C)C)C(C)(C)C(=O)C2(C)C,51.2 µM (inactive),27.8 µM (inactive),54.2 µM (inactive),63.4 µM (inactive),> 100,–,> 100 µM (inactive),89.5 µM (inactive),77.3 µM (inactive),22.1 µM (inactive),> 10 µM (inactive),> 100 µM (inactive),64.4 µM (inactive),> 100 µM (inactive),35.2 µM (inactive),48.3 µM (inactive),81.8 µM (inactive),> 100 µM (inactive),> 100 µM (inactive),–
Cc1c2c(c(O)c3c(O)cccc13)C(=O)C1(O)C(=O)C(C(=O)NCNc3ccc(C(N)=O)cn3)=C(O)C(N(C)C)C1C2 (stereo not drawn),2.96 µM (inactive),3.48 µM (inactive),5.36 µM (inactive),4.33 µM (inactive),2.8,–,3.89 µM (inactive),1.82 µM (inactive),3.78 µM (inactive),2.94 µM (inactive),–,1.93 µM (inactive),3.21 µM (inactive),3.53 µM (inactive),2.16 µM (inactive),4.78 µM (inactive),3.05 µM (inactive),5.15 µM (inactive),3.39 µM (inactive),2.89 µM (inactive)
O=C1N=C(S)NNC12c1ccccc1-c1ccccc12,> 10 µM (inactive),> 10 µM (inactive),> 10 µM (inactive),2.99 µM (inactive),> 10,> 10 µM (inactive),> 10 µM (inactive),> 10 µM (inactive),> 10 µM (inactive),> 10 µM (inactive),5.42 µM (inactive),> 10 µM (inactive),> 10 µM (inactive),> 10 µM (inactive),5.22 µM (inactive),> 10 µM (inactive),> 10 µM (inactive),> 10 µM (inactive),> 10 µM (inactive),–
COc1cc2c(c(OC)c1OC)C(=O)c1c(O)cc(C)c(OC)c1C2=O,77.3 µM (inactive),> 100 µM (inactive),44.6 µM (inactive),65 µM (inactive),> 100,> 100 µM (inactive),> 100 µM (inactive),> 100 µM (inactive),55 µM (inactive),> 100 µM (inactive),63.1 µM (inactive),> 100 µM (inactive),> 100 µM (inactive),37.2 µM (inactive),39.4 µM (inactive),> 100 µM (inactive),> 100 µM (inactive),27.2 µM (inactive),–,–
CNC(=S)N1CCN(C(C)=O)C1=S,38.8 µM (inactive),12.9 µM (inactive),50 µM (inactive),25.1 µM (inactive),34.4,47.8 µM (inactive),67.8 µM (inactive),44.9 µM (inactive),4.27 µM (inactive),22.4 µM (inactive),87.9 µM (inactive),6.56 µM (inactive),92.5 µM (inactive),29.2 µM (inactive),71.4 µM (inactive),57.7 µM (inactive),23.7 µM (inactive),> 100 µM (inactive),43.7 µM (inactive),–
